A short description of test [1]: A375 melanoma cell cytotoxicity, dose response, counter-screen for MITF inhibitor project, CellTiter-Glo luminescence, dry powder, set 6 (AID 624488). It is filed as functional, cell-based. Conditions: A-375.
Test [2] is described as follows: MALME3 melanoma cell viability reduction, dose response, orthogonal assay for MITF inhibitor project, CellTiter-Glo luminescence, dry powder, set 5 (AID 651584). In kind it is functional, cell-based. Conditions: MALME-3. A general note: ATP-based viability assays read luminescence as a measure of living cells.
The nature of test [3]: SK-MEL-5 parental line viability, dose response, MITF inhibitor project, cell-based, CellTiter-Glo, dry powder, set 6 (AID 624429). In kind it is functional.
Test [4] can be described thus: TRPM1 promoter luciferase reporter signal decrease, dose response, MITF inhibitor project, cell-based, SK-MEL-5, dry powder, set 9 (AID 651588). In kind it is functional. On the technique in general: Reporter assays use an easily measured gene product as a stand-in for the process of interest.
Test [5] in a line: MITF Orthogonal Assay: SK-MEL-5 CTG Assay Measured in Cell-Based System Using Plate Reader - 2084-02_Inhibitor_Dose_DryPowder_Activity_Set5. In kind it is functional.
The nature of test [6]: A375 melanoma cell viability loss, dose response, counter-screen for MITF modulator project, CellTiter-Glo luminescence, dry powder, set 9 (AID 651591). It is filed as functional, cell-based. Conditions: A-375. A general note: Counterscreens check selectivity or assay interference.
A short description of test [7]: A375 melanoma cell viability loss, dose response, counter-screen for MITF inhibitor project, CellTiter-Glo luminescence, dry powder, set 4 (AID 624364).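 Note: A375 melanoma cells are MITF independent so this is a counter screen.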 In kind it is functional, cell-based. Conditions: A-375.
Test [8] in a line: A375 melanoma cell cytotoxicity, dose response, counter-screen for MITF inhibitor project, CellTiter-Glo luminescence, dry powder, set 7 (AID 624490). It is filed as functional, cell-based. Conditions: A-375.
Test [9] is described as follows: SK-MEL-5 parental cell viability reduction, dose response, orthogonal assay for MITF inhibitor project, CellTiter-Glo luminescence, dry powder, set 8 (AID 651586). In kind it is functional, cell-based.
The nature of test [10]: MITF Measured in Cell-Based System Using Plate Reader - 2084-01_Inhibitor_Dose_DryPowder_Activity_Set7. In kind it is functional.
The nature of test [11]: MITF Orthogonal Assay: MALME3 CTG Assay Measured in Cell-Based System Using Plate Reader - 2084-04_Inhibitor_Dose_DryPowder_Activity_Set6. Conditions: MALME-3. In kind it is functional.
Test [12] in a line: cytotoxicity in primary human melanocytes, dose response, cytotoxicity control, cell-based, plate reader, dry powder (AID 651920). It is filed as functional.
A short description of test [13]: MITF Measured in Cell-Based System Using Plate Reader - 2084-01_Inhibitor_Dose_DryPowder_Activity_Set6. In kind it is functional.
Test [14] in a line: T. cruzi growth inhibition in host cells, dose response, cell-based, plate reader, dry powder, set 2 (AID 652275). It is filed as functional.
The nature of test [15]: P. falciparum Dd2 growth inhibitors, dose response, SYBR Green, dry powder samples (AID 1159566).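 Note: potency for growth inhibition with lower SYBR green DNA signal.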 It is filed as functional, cell-based.
A short description of test [16]: P. falciparum 3D7-ScDHODH growth inhibitors, dose response, SYBR Green, dry powder samples (AID 1159570).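 Note: parasite growth measured after 72 hours of compound exposure.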 It is filed as functional, cell-based.
A short description of test [17]: P. falciparum ATP4 D1247Y mutant growth inhibitors, dose response, NITD609-resistant line, SYBR Green, dry powder (AID 1159571).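 Note: parasites synchronized at ring stage by sorbitol before testing.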 In kind it is functional, cell-based.
Test [18] is described as follows: P. falciparum Dd2 growth inhibitors, dose response, SYBR Green, cherry-picked samples (AID 1159567). It is filed as functional, cell-based.
Test [19] in a line: P. falciparum Dd2 growth inhibitors, dose response, SYBR Green, dry powder samples, set 9 (AID 1159568). It is filed as functional, cell-based.
A short description of test [20]: M. tuberculosis H37Rv growth inhibitors, H37Rv strain (AID 1626). It is filed as functional.
Test [21] deals with Solute carrier family 12 member 2/member 5 (Homo sapiens, UniProt P55011+Q9H2X9). The test is described as follows: KCC2 and NKCC1 inhibition by rubidium flux, cell-based, NKCC1 counter-screen (AID 1734). In kind it is functional, HEK293.
Test [22] concerns the target Peroxisome proliferator-activated receptor gamma/Nuclear receptor coactivator 1 (Homo sapiens, UniProt P37231). The test is described as follows: TR-FRET dose response biochemical High Throughput Screening assay for agonists of the steroid receptor coactivator 1 (SRC-1) recruitment by the peroxisome proliferator-activated receptor gamma (PPAR gamma): non-selective agonists. [Related pubchem assays (depositor defined):AID1300, AID1808, AID504735, AID631]. In kind it is protein assay.

For test [23], the target named is Peroxisome proliferator-activated receptor gamma/Nuclear receptor coactivator 3 (Homo sapiens, UniProt P37231). Nature of the test: TR-FRET dose response biochemical High Throughput Screening assay for agonists of the steroid receptor coactivator 3 (SRC-3) recruitment by the peroxisome proliferator-activated receptor gamma (PPAR gamma): non-selective agonists. [Related pubchem assays: 1301 (Confirmation screen.), 1048 (Primary screen.)]. It is filed as functional.

In test [24] the target is Peroxisome proliferator-activated receptor gamma/Nuclear receptor coactivator 2 (Homo sapiens, UniProt P37231). Nature of the test: TR-FRET dose response biochemical High Throughput Screening assay for agonists of the steroid receptor coactivator 2 (SRC-2) recruitment by the peroxisome proliferator-activated receptor gamma (PPAR gamma): non-selective agonists. [Related pubchem assays: 1297, 1032 ]. In kind it is functional.

Test [25] deals with Peroxisome proliferator-activated receptor gamma/Nuclear receptor corepressor 2 (Homo sapiens, UniProt P37231+Q9Y618). The test is described as follows: Counterscreen for NR2E3 inverse agonists: TR-FRET-based biochemical high throughput dose response assay to identify inverse agonists of the interaction between peroxisome proliferator-activated receptor gamma (PPARg) and nuclear receptor co-repressor 2 (NCOR2). In kind it is functional.

Test [26] concerns the target Photoreceptor-specific nuclear receptor (Homo sapiens, UniProt Q9Y5X4). The test is described as follows: NR2E3 inverse agonists, dose response, biochemical, TR-FRET (AID 463256). In kind it is functional.
The target of test [27] is RNA-editing ligase 1, mitochondrial (Trypanosoma brucei brucei, UniProt P86926). Nature of the test: TbREL1 ligase inhibitors, dose response, biochemical, fluorescence, Trypanosoma brucei (AID 1117295). In kind it is functional.
In another test the target is T1, CAAX prenyl protease 2 (Homo sapiens, UniProt Q9Y256).
T1 sequence (Q9Y256 whole entry): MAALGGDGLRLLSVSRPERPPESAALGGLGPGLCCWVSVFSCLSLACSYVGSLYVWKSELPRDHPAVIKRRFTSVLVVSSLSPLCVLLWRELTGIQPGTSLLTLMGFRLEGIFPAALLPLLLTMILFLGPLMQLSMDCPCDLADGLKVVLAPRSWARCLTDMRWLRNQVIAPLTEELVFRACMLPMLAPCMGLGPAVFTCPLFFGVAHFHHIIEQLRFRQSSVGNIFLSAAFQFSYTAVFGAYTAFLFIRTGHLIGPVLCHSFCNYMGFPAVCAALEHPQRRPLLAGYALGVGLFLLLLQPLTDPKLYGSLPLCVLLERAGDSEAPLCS
Nature of the test: human Rce1 protease inhibitors, dose response, biochemical, yeast membranes, quenched-peptide fluorescence, cherry-pick (AID 588849).

In test [28] the target is T2, Mannose-6-phosphate isomerase (Homo sapiens, UniProt P34949).
T2 sequence (P34949 whole entry): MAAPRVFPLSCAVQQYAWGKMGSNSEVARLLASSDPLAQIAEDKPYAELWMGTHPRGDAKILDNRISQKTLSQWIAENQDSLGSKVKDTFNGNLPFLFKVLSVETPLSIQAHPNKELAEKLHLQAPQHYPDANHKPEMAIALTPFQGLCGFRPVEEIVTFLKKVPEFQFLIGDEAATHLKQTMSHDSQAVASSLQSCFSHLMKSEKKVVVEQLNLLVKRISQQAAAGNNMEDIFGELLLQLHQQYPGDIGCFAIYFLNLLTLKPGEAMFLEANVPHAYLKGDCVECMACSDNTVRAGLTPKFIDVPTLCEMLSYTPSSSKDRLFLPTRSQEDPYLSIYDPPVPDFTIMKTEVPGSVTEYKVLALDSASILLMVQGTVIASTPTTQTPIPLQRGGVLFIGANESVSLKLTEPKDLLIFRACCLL
Nature of the test: human PMI inhibitors, high substrate, primary screen, biochemical, fluorescence intensity, high mannose 6-phosphate (AID 1220).

The target in another test is Trypsin (Sus scrofa, UniProt P00761). Nature of the test: porcine trypsin inhibitors, dose response, selectivity assay for Rce1 protease inhibitor project, biochemical, quenched peptide fluorescence, cherry-pick (AID 488789).
In the next test the target is T3, NADPH oxidase 1 (Homo sapiens, UniProt Q9Y5S8).
T3 sequence (Q9Y5S8 whole entry): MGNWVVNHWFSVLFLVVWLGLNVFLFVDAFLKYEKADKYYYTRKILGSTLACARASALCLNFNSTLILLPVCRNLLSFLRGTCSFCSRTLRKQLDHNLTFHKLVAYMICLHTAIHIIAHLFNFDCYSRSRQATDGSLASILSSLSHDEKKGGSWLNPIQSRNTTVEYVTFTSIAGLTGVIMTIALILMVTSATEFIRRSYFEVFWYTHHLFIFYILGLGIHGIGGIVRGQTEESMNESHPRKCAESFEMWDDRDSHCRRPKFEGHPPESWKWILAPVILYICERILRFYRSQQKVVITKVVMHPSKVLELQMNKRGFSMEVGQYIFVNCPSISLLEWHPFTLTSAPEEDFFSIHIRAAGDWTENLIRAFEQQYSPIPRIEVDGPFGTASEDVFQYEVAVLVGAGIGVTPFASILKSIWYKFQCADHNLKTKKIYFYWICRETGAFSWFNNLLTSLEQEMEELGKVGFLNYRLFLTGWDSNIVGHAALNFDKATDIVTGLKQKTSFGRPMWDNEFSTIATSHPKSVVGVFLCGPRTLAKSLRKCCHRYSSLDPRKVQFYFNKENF
The test is described as follows: Late-stage luminescence-based cell-based dose response assay to identify inhibitors of NADPH oxidase 1 (NOX1): Purchased analogs 2. In kind it is functional.

Active and inactive are the calls of the source.

Chain of Trypsin (P00761 whole entry): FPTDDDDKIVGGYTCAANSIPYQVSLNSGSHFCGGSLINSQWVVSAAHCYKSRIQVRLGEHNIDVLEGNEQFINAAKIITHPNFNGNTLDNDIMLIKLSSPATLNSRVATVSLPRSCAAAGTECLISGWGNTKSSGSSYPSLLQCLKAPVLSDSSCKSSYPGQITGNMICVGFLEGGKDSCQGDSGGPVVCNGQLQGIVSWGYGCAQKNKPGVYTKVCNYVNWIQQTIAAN
Chain of Photoreceptor-specific nuclear receptor (Q9Y5X4 whole entry): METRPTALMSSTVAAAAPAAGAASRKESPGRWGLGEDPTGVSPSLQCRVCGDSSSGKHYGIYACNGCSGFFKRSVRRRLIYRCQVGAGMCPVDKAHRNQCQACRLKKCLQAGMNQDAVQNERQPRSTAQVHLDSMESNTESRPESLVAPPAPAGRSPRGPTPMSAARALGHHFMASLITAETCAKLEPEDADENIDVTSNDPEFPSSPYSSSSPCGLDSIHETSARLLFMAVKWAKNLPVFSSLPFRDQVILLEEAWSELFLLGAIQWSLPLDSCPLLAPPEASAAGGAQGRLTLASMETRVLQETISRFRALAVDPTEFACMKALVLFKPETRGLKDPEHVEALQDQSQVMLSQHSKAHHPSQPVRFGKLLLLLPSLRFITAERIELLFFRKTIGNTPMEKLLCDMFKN
Chain of RNA-editing ligase 1, mitochondrial (P86926 whole entry): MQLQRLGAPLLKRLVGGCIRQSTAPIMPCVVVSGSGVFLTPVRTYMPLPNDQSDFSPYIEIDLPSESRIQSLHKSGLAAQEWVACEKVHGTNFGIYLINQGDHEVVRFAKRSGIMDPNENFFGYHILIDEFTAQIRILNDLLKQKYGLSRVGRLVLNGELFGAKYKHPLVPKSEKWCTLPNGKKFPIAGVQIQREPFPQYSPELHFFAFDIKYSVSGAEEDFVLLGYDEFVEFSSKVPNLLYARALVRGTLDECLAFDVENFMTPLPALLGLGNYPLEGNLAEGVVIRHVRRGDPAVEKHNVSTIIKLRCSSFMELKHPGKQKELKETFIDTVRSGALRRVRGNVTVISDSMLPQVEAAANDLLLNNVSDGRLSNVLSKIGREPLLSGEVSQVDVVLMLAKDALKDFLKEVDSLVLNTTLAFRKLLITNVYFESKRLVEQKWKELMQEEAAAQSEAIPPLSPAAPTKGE
Chain of Peroxisome proliferator-activated receptor gamma/Nuclear receptor corepressor 2 (P37231 whole entry): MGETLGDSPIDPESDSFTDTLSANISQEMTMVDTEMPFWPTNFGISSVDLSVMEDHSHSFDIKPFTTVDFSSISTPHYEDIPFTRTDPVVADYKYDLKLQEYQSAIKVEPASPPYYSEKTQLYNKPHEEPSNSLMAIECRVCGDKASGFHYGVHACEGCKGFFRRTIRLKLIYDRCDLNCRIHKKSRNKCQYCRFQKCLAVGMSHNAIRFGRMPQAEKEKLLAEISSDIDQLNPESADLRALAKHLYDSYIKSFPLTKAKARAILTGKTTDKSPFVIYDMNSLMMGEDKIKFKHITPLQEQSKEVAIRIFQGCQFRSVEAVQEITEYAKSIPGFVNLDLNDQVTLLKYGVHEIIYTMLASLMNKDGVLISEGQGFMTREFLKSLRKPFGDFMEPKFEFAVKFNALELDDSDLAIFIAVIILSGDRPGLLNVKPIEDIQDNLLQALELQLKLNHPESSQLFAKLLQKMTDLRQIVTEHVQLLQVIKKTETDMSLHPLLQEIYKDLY
Chain of Peroxisome proliferator-activated receptor gamma/Nuclear receptor corepressor 2 (Q9Y618 whole entry): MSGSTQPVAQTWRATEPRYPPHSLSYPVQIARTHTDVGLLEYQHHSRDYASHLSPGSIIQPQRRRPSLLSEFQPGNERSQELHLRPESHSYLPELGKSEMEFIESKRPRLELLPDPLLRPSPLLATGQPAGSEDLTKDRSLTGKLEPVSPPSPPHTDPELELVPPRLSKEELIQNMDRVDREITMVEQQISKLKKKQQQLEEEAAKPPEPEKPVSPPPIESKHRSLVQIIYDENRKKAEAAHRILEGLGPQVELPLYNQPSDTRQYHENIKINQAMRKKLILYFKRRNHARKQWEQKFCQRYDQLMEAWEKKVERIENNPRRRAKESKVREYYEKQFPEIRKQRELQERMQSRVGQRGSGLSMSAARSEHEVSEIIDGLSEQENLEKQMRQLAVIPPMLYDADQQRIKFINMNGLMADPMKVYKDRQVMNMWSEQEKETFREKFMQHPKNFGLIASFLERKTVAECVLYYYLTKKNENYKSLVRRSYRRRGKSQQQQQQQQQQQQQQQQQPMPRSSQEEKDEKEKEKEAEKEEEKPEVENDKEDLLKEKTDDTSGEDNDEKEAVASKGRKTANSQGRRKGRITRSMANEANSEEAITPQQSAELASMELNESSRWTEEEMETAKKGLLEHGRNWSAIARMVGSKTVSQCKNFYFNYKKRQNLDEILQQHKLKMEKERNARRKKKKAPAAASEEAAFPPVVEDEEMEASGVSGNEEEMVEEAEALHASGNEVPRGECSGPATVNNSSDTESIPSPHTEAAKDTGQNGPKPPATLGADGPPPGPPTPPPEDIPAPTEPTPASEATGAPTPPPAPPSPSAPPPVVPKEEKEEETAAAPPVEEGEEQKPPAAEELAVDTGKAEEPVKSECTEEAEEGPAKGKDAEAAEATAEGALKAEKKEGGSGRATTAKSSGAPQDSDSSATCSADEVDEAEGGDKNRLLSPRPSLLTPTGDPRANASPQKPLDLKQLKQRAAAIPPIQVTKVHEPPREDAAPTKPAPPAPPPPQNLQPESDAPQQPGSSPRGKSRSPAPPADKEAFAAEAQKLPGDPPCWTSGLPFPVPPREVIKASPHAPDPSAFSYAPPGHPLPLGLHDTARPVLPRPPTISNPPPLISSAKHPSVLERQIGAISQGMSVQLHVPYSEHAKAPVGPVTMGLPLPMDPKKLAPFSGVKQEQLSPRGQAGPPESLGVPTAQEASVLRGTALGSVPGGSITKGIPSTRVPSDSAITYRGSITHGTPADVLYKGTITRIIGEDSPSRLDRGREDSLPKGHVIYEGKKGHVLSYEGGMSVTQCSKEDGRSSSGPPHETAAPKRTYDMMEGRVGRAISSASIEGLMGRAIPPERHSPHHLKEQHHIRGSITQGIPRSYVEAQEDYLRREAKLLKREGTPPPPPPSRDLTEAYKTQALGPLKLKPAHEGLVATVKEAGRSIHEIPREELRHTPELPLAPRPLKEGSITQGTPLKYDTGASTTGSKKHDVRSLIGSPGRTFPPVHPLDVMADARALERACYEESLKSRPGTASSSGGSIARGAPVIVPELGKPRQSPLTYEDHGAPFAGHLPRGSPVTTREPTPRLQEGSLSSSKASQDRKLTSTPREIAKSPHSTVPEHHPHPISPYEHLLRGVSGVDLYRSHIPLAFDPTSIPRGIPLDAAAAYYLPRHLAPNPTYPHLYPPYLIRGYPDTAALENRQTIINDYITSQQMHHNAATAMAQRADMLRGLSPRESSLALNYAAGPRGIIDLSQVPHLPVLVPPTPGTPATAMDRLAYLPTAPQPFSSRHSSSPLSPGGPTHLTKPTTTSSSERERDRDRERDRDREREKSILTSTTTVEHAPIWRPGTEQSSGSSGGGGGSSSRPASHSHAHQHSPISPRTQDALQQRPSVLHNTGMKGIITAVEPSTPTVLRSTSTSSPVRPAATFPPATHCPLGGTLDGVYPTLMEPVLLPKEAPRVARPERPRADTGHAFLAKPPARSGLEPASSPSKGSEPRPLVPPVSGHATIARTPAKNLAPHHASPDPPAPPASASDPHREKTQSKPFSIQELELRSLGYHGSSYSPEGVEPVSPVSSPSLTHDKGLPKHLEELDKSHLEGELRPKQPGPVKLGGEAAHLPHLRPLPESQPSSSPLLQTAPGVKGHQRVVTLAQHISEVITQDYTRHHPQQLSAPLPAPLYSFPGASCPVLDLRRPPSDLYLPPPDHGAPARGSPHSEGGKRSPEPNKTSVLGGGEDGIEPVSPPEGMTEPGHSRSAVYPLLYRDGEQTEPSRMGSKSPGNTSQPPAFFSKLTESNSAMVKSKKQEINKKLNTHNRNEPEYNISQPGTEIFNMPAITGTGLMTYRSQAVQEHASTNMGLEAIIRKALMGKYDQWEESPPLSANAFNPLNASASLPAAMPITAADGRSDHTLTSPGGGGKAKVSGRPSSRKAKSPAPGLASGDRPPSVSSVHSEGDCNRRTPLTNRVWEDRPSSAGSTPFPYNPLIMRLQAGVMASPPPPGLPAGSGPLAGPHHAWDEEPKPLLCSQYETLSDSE

In general, AC50 refers to the concentration giving half of the maximal activity seen. Consider `COC1=C(NS(=O)(=O)c2ccc(Br)cc2)C(=O)c2ccccc2C1=O`, for which the AC50 in test [1] was > 70 µM (inactive); in test [2], 34.9 µM (active); in [3], 21.5 µM (active); in test [4], 38.3 µM (active); in test [5], 12 µM (active); in test [6] it was > 70 µM (inactive). For the same compound, the AC50 is > 70 µM (inactive) in [7]; > 70 µM (inactive) in test [8]; 19.8 µM (active) in test [9]; 10.4 µM (active) in test [10]; 34.9 µM (active) in test [11]; > 70 µM (inactive) in [12]. The AC50 in [13] is 14.8 µM (active).

For the compound `CC(C)(C)[S+]([O-])N1Cc2cc(C(=O)NCc3ccc4c(c3)OCO4)nc(-c3cccc(-c4cc5ccccc5o4)c3)c2[C@H]1CCO` (stereo partly specified), the concentration at half-maximal activity (AC50) was 361 nM (active) in [14]; 1.16 µM (active) in test [15]; 1.46 µM (active) in [16]; 1.21 µM (active) in test [17]; 1.51 µM (active) in test [18]; 2.2 µM (active) in test [19].

The term IC50 denotes the concentration that gives 50% inhibition. For the compound `O=C(OCC(=O)N1CCN(C(=O)c2ccco2)CC1)c1sc2ccccc2c1Cl`, the IC50 in [20] was > 100 µM (active); in test [21], 24 µM (active).

Broadly, the EC50 is the concentration that produces a half-maximal response. With `O=C(COc1ccc2ccccc2c1)NCCNC(=O)COc1ccc2ccccc2c1`, the EC50 was 8.38 µM (active) in [22], 47.8 µM (not active) in test [23] and 8.67 µM (active) in [24]. Besides, the figures for the IC50 in test [25] and in test [26] were 5.82 µM (active) and 4.75 µM (active), respectively.

Consider `C#CCOCCOCCOCCNc1nc(N2CCN(C(=O)[C@H](CCCCN)n3cc([C@@H](N)CC(C)C)nn3)CC2)nc(N2CCN(C(=O)[C@H](Cc3cc4ccccc4[nH]3)n3cc([C@@H](N)CC(C)C)nn3)CC2)n1`, for which the IC50 in test [27] is > 96.6 µM (inactive).

Turning to `COc1cc2c(C#N)c(N3CCCCC3)nc(N)c2c(N)n1`, the concentration at half-maximal activity (AC50) on CAAX prenyl protease 2 is 20 µM (active); at Trypsin it was 13.6 µM (active). Moreover, the IC50 in test [28] is > 50 µM (not active).

For `C=C(NNc1c(F)c(F)nc(F)c1F)c1ccc(OC)cc1`, on NADPH oxidase 1, the half-inhibitory concentration (IC50) is recorded as > 17 µM (not active).

Source of the values: ChEMBL document CHEMBL1201862, “PubChem BioAssay data set” (2004).
